Test results taken from US9650372B2, “Molecules having pesticidal utility, and intermediates, compositions, and processes, related thereto” (priority 2015, dated 2017).

What was measured:
[1] = tested on: Beet Armyworm (Spodoptera exigua, LAPHEG); assay: Bioassay on Beet Armyworm (BAW), 128-well diet tray assay; format: in vivo; conditions: 168 h, 50 μg/cm^2 on artificial diet, second instar larvae, 25° C., five to seven days, average of eight wells, read-out: BAW % Control (or Mortality) rating
Description: (§1) Certain molecules disclosed in this document were tested against BAW and CL using procedures described in the following examples. In the reporting of the results, the “BAW & CL Rating Table” was used (See Table Section).
Bioassays on BAW were conducted using a 128-well diet tray assay. One to five second instar BAW larvae were placed in each well (3 mL) of the diet tray that had been previously filled with 1 mL of artificial diet to which 50 μg/cm^2 of the test molecule (dissolved in 50 μL of 90:10 acetone-water mixture) had been applied (to each of eight wells) and then allowed to dry. Trays were covered with a clear self-adhesive cover, vented to allow gas exchange, and held at 25° C., 14:10 light-dark for five to seven days. Percent mortality was recorded for the larvae in each well; activity in the eight wells was then averaged. The results are indicated in the table entitled “Table ABC: Biological Results” (See Table Section).

[2] = tested on: Cabbage Looper (Trichoplusia ni, TRIPNI); assay: Bioassay on Cabbage Looper (CL), 128-well diet tray assay; format: in vivo; conditions: 168 h, 50 μg/cm^2 on artificial diet, second instar larvae, 25° C., five to seven days, average of eight wells, read-out: CL % Control (or Mortality) rating
Description: as §1
Bioassays on CL were conducted using a 128-well diet tray assay. One to five second instar CL larvae were placed in each well (3 mL) of the diet tray that had been previously filled with 1 mL of artificial diet to which 50 μg/cm^2 of the test molecule (dissolved in 50 μL of 90:10 acetone-water mixture) had been applied (to each of eight wells) and then allowed to dry. Trays were covered with a clear self-adhesive cover, vented to allow gas exchange, and held at 25° C., 14:10 light-dark for five to seven days. Percent mortality was recorded for the larvae in each well; activity in the eight wells was then averaged. The results are indicated in the table entitled “Table ABC: Biological Results” (See Table Section).

SMILES	mortality at 50 µg/cm2 [1]	mortality at 50 µg/cm2 [2]
Cc1ccc(C(C)C)c(N2C(=O)CS/C2=N\C(=O)Nc2ccc(-c3ncn(CCc4ccc(OC(F)(F)F)cc4)n3)cc2)c1 [Molecule F1, (Z)-1-(3-(2-isopropyl-5-methylphenyl)-4-oxothiazolidin-2-ylidene)-3-(4-(1-(4-(trifluoromethoxy)phenethyl)-1H-1,2,4-triazol-3-yl)phenyl)urea]	50 to 100%	50 to 100%
CC(C)c1ccccc1N1C(=O)CS/C1=N\C(=O)Nc1ccc(-c2ncn(CCCC(F)(F)C(F)(F)F)n2)cc1 [Molecule F2, (Z)-1-(3-(2-Isopropylphenyl)-4-oxothiazolidin-2-ylidene)-3-(4-(1-(4,4,5,5,5-pentafluoropentyl)-1H-1,2,4-triazol-3-yl)phenyl)urea]	50 to 100%	50 to 100%
CC(C)c1ccccc1N1C(=O)CS/C1=N\C(=O)Nc1ccc(-c2ncn(Cc3ccc(C(F)(F)F)cc3)n2)cc1 [Molecule F3, (Z)-1-(3-(2-Isopropylphenyl)-4-oxothiazolidin-2-ylidene)-3-(4-(1-(4-(trifluoromethyl)benzyl)-1H-1,2,4-triazol-3-yl)phenyl)urea]	0 to 50%	50 to 100%
CC(C)c1ccccc1N1C(=O)CS/C1=N\C(=O)Nc1ccc(-c2ncn(CCCCC(F)(F)F)n2)cc1 [Molecule F4, (Z)-1-(3-(2-Isopropylphenyl)-4-oxothiazolidin-2-ylidene)-3-(4-(1-(5,5,5-trifluoropentyl)-1H-1,2,4-triazol-3-yl)phenyl)urea]	50 to 100%	50 to 100%
CC(C)c1ccccc1N1C(=O)CS/C1=N\C(=O)Nc1ccc(-c2ncn(CCC(F)(F)C(F)(F)C(F)(F)F)n2)cc1 [Molecule F5, (Z)-1-(4-(1-(3,3,4,4,5,5,5-heptafluoropentyl)-1H-1,2,4-triazol-3-yl)phenyl)-3-(3-(2-isopropylphenyl)-4-oxothiazolidin-2-ylidene)urea]	50 to 100%	50 to 100%
